The record followed here is patent US10508109B2 (priority 2015, dated 2019).

The structures appear in SMILES notation. Read-outs that look alike come from different tables or passages of the source.

By IC50 is commonly meant the point on the concentration scale where inhibition reaches its midpoint.

One assay relates to A549. The experiment in a line: Cell-based assay, anti-proliferative activity (Cell Counting Kit-8, 72 hours). The conditions noted are these: Homo sapiens, read-out: IC50 (μM) A549. The method in brief:
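Seed cells in 96-well format; add inhibitors; measure growth by CCK-8 at end of exposure; derive IC50.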

The next assay relates to HCT-116. Described as above. The conditions noted are these: Homo sapiens, read-out: IC50 (μM) HCT-116. Put shortly: (§1)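 Anti-proliferative IC50 obtained from 96-well cultures treated 72 h with inhibitor at 0–100 micro-M, growth assessed by a CCK-8 colorimetric readout.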
For another assay, the system named is PC14. The description is as above. The conditions noted are these: Homo sapiens, read-out: IC50 (μM) PC14. The method in brief: as §1
Another assay deals with CCD-18Co. The description is as above. The conditions noted are these: Homo sapiens, read-out: IC50 (μM) CCD-18Co. Put shortly: as §1
The subject of another assay is HFL1. Described as above. The conditions noted are these: Homo sapiens, read-out: IC50 (μM) HFL1. Put shortly:
as §1

The next assay deals with SUV39H2 (Homo sapiens (Human), UniProt Q9H5I1). The conditions noted are these: read-out: IC50 (μM) Suv 39H2 assay; enzyme assay.
Sequence of SUV39H2 (Q9H5I1 whole entry): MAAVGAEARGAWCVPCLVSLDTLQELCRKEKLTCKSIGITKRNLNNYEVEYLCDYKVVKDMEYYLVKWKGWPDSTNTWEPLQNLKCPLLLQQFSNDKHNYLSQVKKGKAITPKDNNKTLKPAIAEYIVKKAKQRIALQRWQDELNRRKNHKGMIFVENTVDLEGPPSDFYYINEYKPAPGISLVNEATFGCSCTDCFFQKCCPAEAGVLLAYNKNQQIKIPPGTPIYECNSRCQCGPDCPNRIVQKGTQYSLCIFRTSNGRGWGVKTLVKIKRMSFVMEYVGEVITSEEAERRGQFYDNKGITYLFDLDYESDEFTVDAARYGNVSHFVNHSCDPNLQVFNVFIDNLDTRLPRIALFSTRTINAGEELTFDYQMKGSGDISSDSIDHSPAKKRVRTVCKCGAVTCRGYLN
Setting [1] is: A549 cells, 72 hours, Cell Counting Kit-8.
[2] abbreviates: HCT-116 cells, 72 hours, Cell Counting Kit-8.
Where [3] appears, read: PC-14, PC14 cells, 72 hours, Cell Counting Kit-8.
Where [4] appears, read: CCD-18Co cells, 72 hours, Cell Counting Kit-8.
[5] abbreviates: HFL1 cells, 72 hours, Cell Counting Kit-8.
The mark [6] stands for this setting: A549 cells, Cell Counting Kit-8, 72 hours.
[7] abbreviates: HCT-116 cells, Cell Counting Kit-8, 72 hours.
Where [8] appears, read: PC-14, PC14 cells, Cell Counting Kit-8, 72 hours.
The mark [9] stands for this setting: CCD-18Co cells, Cell Counting Kit-8, 72 hours.
Setting [10] is: HFL1 cells, Cell Counting Kit-8, 72 hours.

On to `COC(=O)N[C@H]1CC[C@H](Nc2ccn3cc(-c4cc(Cl)c(OC)cc4OC)nc3c2)CC1` [Example 277, (methyl-4-((2-(5-chloro-2,4-dimethoxyphenyl)imidazo[1,2-a]pyridin-7-yl)amino)-trans-cyclohexyl)carbamate], for which the half-maximal inhibitory concentration (IC50) with A549 (setting [1]) turned out to be 0.98 µM; in the assay with HCT-116 (setting [2]) it was 0.8 µM; with PC14 (setting [3]), 0.93 µM; with CCD-18Co (setting [4]), 0.78 µM; with HFL1 (setting [5]), 0.7 µM; at SUV39H2 it was 0.00524 µM.
Consider `COc1cc(OC)c(-c2cn3ccc(N4CCCN(S(=O)(=O)C(F)(F)F)CC4)cc3n2)cc1Cl` [Example 188, 2-(5-chloro-2,4-dimethoxyphenyl)-7-{4-[(trifluoromethyl)sulfonyl]-1,4-diazepan-1-yl}imidazo[1,2-a]pyridine], for which the IC50 was 1.6 µM in the assay with A549 (setting [6]); 1.6 µM with HCT-116 (setting [7]); 1.6 µM in the assay on PC14 (setting [8]); 1.4 µM in the assay with CCD-18Co (setting [9]); 1.5 µM in the assay on HFL1 (setting [10]); 0.0369 µM at SUV39H2.
As for `COc1cc(Cl)c(Cl)cc1-c1cn2ccc(N3CCCC3)cc2n1` [Example 233, 2-(4,5-dichloro-2-methoxyphenyl)-7-(pyrrolidin-1-yl)imidazo[1,2-a]-pyridine], the IC50 with A549 (setting [1]) was 2.6 µM; in the assay with HCT-116 (setting [2]) it was 2.7 µM; with PC14 (setting [3]) it was 1.8 µM; in the assay with CCD-18Co (setting [4]) it was 2.8 µM; in the assay with HFL1 (setting [5]), 2.7 µM; on SUV39H2, 0.085 µM.
For `CCS(=O)(=O)N1CCN(c2ccn3cc(-c4cc(Cl)c(OC)cc4OC)nc3c2)CC1` [Example 172, 2-(5-chloro-2,4-dimethoxyphenyl)-7-[4-(ethylsulfonyl)piperazin-1-yl]imidazo[1,2-a]pyridine], the IC50 with A549 (setting [6]) came to 1.9 µM; with HCT-116 (setting [7]), 1.2 µM; with PC14 (setting [8]), 1.6 µM; in the assay with CCD-18Co (setting [9]), 1.8 µM; in the assay on HFL1 (setting [10]), 1.8 µM; at SUV39H2 it was 0.0125 µM.
On to `COc1cc(OC)c(-c2cn3ccc(NC(=O)CCNC(=O)OC(C)(C)C)cc3n2)cc1Cl` [Example 157, tert-butyl (3-{[2-(5-chloro-2,4-dimethoxyphenyl)imidazo[1,2-a]pyridin-7-yl]amino}-3-oxopropyl)carbamate], for which the IC50 in the assay with A549 (setting [6]) was determined as 7.5 µM; with HCT-116 (setting [7]) it was 6.8 µM; in the assay on PC14 (setting [8]), 6.2 µM; with CCD-18Co (setting [9]), 7.1 µM; in the assay on HFL1 (setting [10]), 4.7 µM; at SUV39H2 it was 0.0628 µM.
Consider `COc1cc(OC)c(-c2cn3ccc(NC(=O)[C@H](C(C)C)N(C)C)cc3n2)cc1Cl` [Example 272, (S)—N-(2-(5-chloro-2,4-dimethoxyphenyl)imidazo[1,2-a]pyridin-7-yl)-2-(dimethylamino)-3-methylbutanamide], for which the IC50 was found to be 0.86 µM with A549 (A549, 72 h); 2.9 µM with HCT-116 (HCT-116, 72 h); 0.98 µM in the assay on PC14 (PC-14, 72 h); 0.47 µM with CCD-18Co (CCD-18Co, 72 h); 0.45 µM in the assay on HFL1 (HFL1, 72 h); 0.0961 µM on SUV39H2.
Regarding `CCCCCNC1CCN(c2ccn3cc(-c4cc(Cl)c(OC)cc4OC)nc3c2)CC1` [Example 129, 1-[2-(5-chloro-2,4-dimethoxyphenyl)imidazo[1,2-a]pyridin-7-yl]-N-pentylpiperidin-4-amine], the IC50 in the assay with A549 (setting [6]) is 1.5 µM; with HCT-116 (setting [7]), 0.74 µM; in the assay with PC14 (setting [8]) it was 1.7 µM; with CCD-18Co (setting [9]), 1.3 µM; in the assay on HFL1 (setting [10]) it was 0.7 µM; at SUV39H2 it was 0.00841 µM.
Take `CCOP(=O)(CCN1CCCN(c2ccn3cc(-c4cc(Cl)c(OC)cc4OCCCN(C)C)nc3c2)CC1)OCC` [Example 214, diethyl (2-(4-(2-(5-chloro-2-(3-(dimethylamino)propoxy)-4-methoxyphenyl)-imidazo[1,2-a]pyridin-7-yl)-1,4-diazepan-1-yl)ethyl)phosphonate]: the IC50 came out at 10 µM in the assay on A549 (setting [1]); 10 µM in the assay on HCT-116 (setting [2]); 10 µM in the assay on PC14 (setting [3]); 10 µM in the assay on CCD-18Co (setting [4]); 10 µM in the assay with HFL1 (setting [5]); 0.0106 µM on SUV39H2.
On to `COc1cc(OC)c(-c2cn3ccc(N4CCN(S(=O)(=O)N(C)C)CC4)nc3n2)cc1Cl` [Example 180, 4-[2-(5-chloro-2,4-dimethoxyphenyl)imidazo[1,2-a]pyrimidin-7-yl]-N,N-dimethylpiperazine-1-sulfonamide], for which the IC50 with A549 (setting [6]) was 1.1 µM; in the assay on HCT-116 (setting [7]), 1.5 µM; with PC14 (setting [8]), 1.6 µM; in the assay on CCD-18Co (setting [9]), 2.6 µM; with HFL1 (setting [10]) it was 1.7 µM; on SUV39H2, 0.0241 µM.
As for `COc1cc(OC)c(-c2cn3ccc(N4CCN(c5cnccn5)CC4)cc3n2)cc1Cl` [Example 285, 2-(5-chloro-2,4-dimethoxyphenyl)-7-(4-(pyrazin-2-yl)piperazin-1-yl)imidazo[1,2-a]pyridine], the IC50 turned out to be 0.72 µM with A549 (setting [1]); 0.67 µM in the assay with HCT-116 (setting [2]); 0.7 µM in the assay with PC14 (setting [3]); 0.7 µM with CCD-18Co (setting [4]); 0.69 µM in the assay on HFL1 (setting [5]); 0.00747 µM at SUV39H2.
`COc1cc(OC)c(-c2cn3ccc(N4CCN(C(=O)C5CC5)CC4)nc3n2)cc1Cl` [Example 242, (4-(2-(5-Chloro-2,4-dimethoxyphenyl)imidazo[1,2-a]pyrimidin-7-yl)-piperazin-1-yl)(cyclopropyl)methanone]: the IC50 in the assay on A549 (setting [1]) was 10 µM; with HCT-116 (setting [2]), 10 µM; in the assay on PC14 (setting [3]), 6.3 µM; in the assay with CCD-18Co (setting [4]), 10 µM; in the assay on HFL1 (setting [5]), 10 µM; at SUV39H2, 0.0154 µM.
With `CCOP(=O)(CCN1CCN(c2ccn3cc(-c4cc(Cl)c(OC)cc4OC)nc3c2)CC1)OCC` [Example 202, diethyl (2-(4-(2-(5-chloro-2,4-dimethoxyphenyl)imidazo[1,2-a]pyridin-7-yl)piperazin-1-yl)ethyl)phosphonate], the IC50 with A549 (setting [6]) came out at 10 µM; with HCT-116 (setting [7]) it was 10 µM; in the assay on PC14 (setting [8]) it was 8 µM; with CCD-18Co (setting [9]), 5.6 µM; in the assay with HFL1 (setting [10]), 7.2 µM; on SUV39H2 it was 0.0064 µM.
Turning to `COc1cc(OC)c(-c2cn3ccc(N4CCN(c5cccc(F)n5)CC4)cc3n2)cc1Cl` [Example 281, 2-(5-chloro-2,4-dimethoxyphenyl)-7-(4-(6-fluoropyridin-2-yl)piperazin-1-yl)imidazo[1,2-a]pyridine], the IC50 in the assay with A549 (setting [1]) turned out to be 1.2 µM; in the assay with HCT-116 (setting [2]), 0.82 µM; in the assay on PC14 (setting [3]), 0.9 µM; in the assay on CCD-18Co (setting [4]) it was 0.83 µM; with HFL1 (setting [5]), 0.76 µM; at SUV39H2 it was 0.0988 µM.
Regarding `COc1cc(OC)c(-c2cn3ccc(-c4ccc(C(=O)N5CCC(N)CC5)cc4)cc3n2)cc1Cl` [Example 259, (4-aminopiperidin-1-yl)(4-(2-(5-chloro-2,4-dimethoxyphenyl)imidazo[1,2-a]pyridin-7-yl)phenyl)methanone], the IC50 in the assay on A549 (setting [1]) came to 10 µM; in the assay with HCT-116 (setting [2]), 7.3 µM; in the assay with PC14 (setting [3]), 7.9 µM; with CCD-18Co (setting [4]), 10 µM; in the assay on HFL1 (setting [5]), 8.6 µM; at SUV39H2, 0.0586 µM.
As for `CCCS(=O)(=O)NC1CCN(c2ccn3cc(-c4cc(Cl)c(OC)cc4OC)nc3c2)CC1` [Example 174, N-{1-[2-(5-chloro-2,4-dimethoxyphenyl)imidazo[1,2-a]pyridin-7-yl]piperidin-4-yl}propane-1-sulfonamide], the IC50 in the assay with A549 (setting [6]) is 3 µM; with HCT-116 (setting [7]), 1.8 µM; in the assay on PC14 (setting [8]) it was 2.3 µM; in the assay with CCD-18Co (setting [9]) it was 2 µM; in the assay with HFL1 (setting [10]), 1.7 µM; at SUV39H2, 0.0104 µM.
Regarding `COc1cc(OC)c(-c2cn3ccc(N4CCCN(S(=O)(=O)C5CC5)CC4)cc3n2)cc1Cl` [Example 187, 2-(5-chloro-2,4-dimethoxyphenyl)-7-[4-(cyclopropylsulfonyl)-1,4-diazepan-1-yl]imidazo[1,2-a]pyridine], the IC50 is 2.1 µM in the assay on A549 (setting [6]); 1.9 µM in the assay on HCT-116 (setting [7]); 1.4 µM in the assay with PC14 (setting [8]); 5 µM in the assay on CCD-18Co (setting [9]); 2.1 µM with HFL1 (setting [10]); 0.00574 µM on SUV39H2.
On to `CCOP(=O)(CCN1CC=C(c2ccn3cc(-c4cc(Cl)c(OC)cc4OC)nc3c2)CC1)OCC` [Example 194, diethyl (2-(4-(2-(5-chloro-2,4-dimethoxyphenyl)imidazo[1,2-a]pyridin-7-yl)-5,6-dihydropyridin-1(2H)-yl)ethyl)phosphonate], for which the half-inhibitory concentration (IC50) is 9 µM in the assay on A549 (setting [6]); 8.6 µM in the assay with HCT-116 (setting [7]); 5.7 µM in the assay on PC14 (setting [8]); 10 µM in the assay on CCD-18Co (setting [9]); 10 µM with HFL1 (setting [10]); 0.0696 µM on SUV39H2.
